Experimental data published in patent US20090018111A1, “Novel Antimicrobial Medicament” (priority 2004, published 2009).
Where two headings read alike, the source gives them in different places.

Columns and labels:
C. freundii GN346 = assay: Sensitivity test (agar dilution); type: cell-based, Citrobacter freundii; settings: Citrobacter freundii, C. freundii GN346
Experimental: (§1) The antibacterial activities were tested against various 18 bacteria (27 standard strains) which are representative bacteria caused clinically infectious disease (Staphylococcus aureus 3 strains, Staphylococcus epidermidis 1 strain, Micrococcus luteus 1 strain, Streptococcus pyogenes 1 strain, Enterococcus faecalis 1 strain, Enterococcus faecium 1 strain, Bacillus subtilis 1 strain, Escherichia coli 3 strains, Klebsiella pneumoniae 1 strain, Proteus mirabilis 1 strain, Proteus vulgaris 2 strains, Pseudomonas aeruginosa 3 strains, Serratia marcescens 2 strains, Enterobacter aerogenes 1 strain, Stenotrophomonas maltophilia 1 strain, Enterobacter cloacae 1 strain, Citrobacter freundii 1 strain, Moraxella catarrhalis 2 strains).
(§2) According to the standard method of Japan Chemotherapeutic Society (Chemotherapy, vol. […], p 76-79 (1981)) the test was carried out using the agar dilution method. After dissolving test samples in distilled water, agar medium containing the test samples was prepared in such a manner that the final concentration became twice serial dilution by pouring serially diluted combination drug solution or a single drug solution into agar medium. As agar medium was used Mueller Hinton Agar medium (MHA). Then, each strain was cultivated over night at 37° C. in an incubator and suspended in buffered saline solution with gelatin (BSG) in the concentration of about 10^6 CFU/ml. The suspension (about 5 μl) containing test strains was inoculated to the medium containing the test samples by Micro Planter.
(§3) When the sample is subjected to sensitivity test, this mixed solution was diluted by twice serial dilution method.
(§4) Furthermore, when the drug is solely used, each test sample was used as it is, and diluted by twice serial dilution method from the maximum concentration to the minimum concentration.
(§5) FIC index based on MIC value was calculated. […] Namely, when FIC index calculated by the following formula is equal or less than 1, the enhanced effect of the combination drug in said ratio is considered as positive. When FIC index is over 1, the enhanced effect of the combination drug in said ratio is considered as negative.
(§6) Formula of FIC index: FIC index=(MIC of Drug A in combination/MIC of Drug A alone)+(MIC of Drug B in combination/MIC of Drug B alone) N.C. in tables means being not calculated.

S. maltophilia IID1275 = assay: Sensitivity test (agar dilution); type: cell-based, Stenotrophomonas maltophilia; settings: Stenotrophomonas maltophilia, S. maltophilia IID1275
Experimental: as §1, §2, §3, §4, §5, §6

E. coli ML1410 RP4 = assay: microbe, parasite or virus in culture; type: cell-based, Escherichia coli; settings: Escherichia coli, E. coli ML1410 RP4
Experimental: as §1, §2, §3, §4, §5, §6

M. luteus ATCC9341 = assay: Sensitivity test (agar dilution); type: cell-based, Micrococcus luteus; settings: Micrococcus luteus, M. luteus ATCC9341
Experimental: as §1, §2, §3, §4, §5, §6

P. mirabiris GN2425 = assay: Sensitivity test (agar dilution); type: cell-based, Proteus mirabilis; settings: Proteus mirabilis, P. mirabiris GN2425
Experimental: as §1, §2, §3, §4, §5, §6

E. aerogenes ATCC13048 = assay: Sensitivity test (agar dilution); type: cell-based, Enterobacter aerogenes; settings: Klebsiella aerogenes, E. aerogenes ATCC13048
Experimental: as §1, §2, §3, §4, §5, §6

K. pneumoniae ATCC10031 = assay: Sensitivity test (agar dilution); type: cell-based, Klebsiella pneumoniae; settings: Klebsiella pneumoniae, K. pneumoniae ATCC10031
Experimental: as §1, §2, §3, §4, §5, §6

P. aeruginosa TL-2666 = assay: Sensitivity test (agar dilution); type: cell-based, Pseudomonas aeruginosa; settings: Pseudomonas aeruginosa, P. aeruginosa TL-2666
Experimental: as §1, §2, §3, §4, §5, §6

P. aeruginosa TL-2667 = assay: Sensitivity test (agar dilution); type: cell-based, Pseudomonas aeruginosa; settings: Pseudomonas aeruginosa, P. aeruginosa TL-2667
Experimental: as §1, §2, §3, §4, §5, §6

B. subtilis ATCC6633 = assay: Sensitivity test (agar dilution); type: cell-based, Bacillus subtilis; settings: Bacillus subtilis, B. subtilis ATCC6633
Experimental: as §1, §2, §3, §4, §5, §6

E. faecalis ATCC19433 = assay: Sensitivity test (agar dilution); type: cell-based, Enterococcus faecalis; settings: Enterococcus faecalis, E. faecalis ATCC19433
Experimental: as §1, §2, §3, §4, §5, §6

M. catarrhalis ATCC8176 = assay: Sensitivity test (agar dilution); type: cell-based, Moraxella catarrhalis; settings: Moraxella catarrhalis, M. catarrhalis ATCC8176
Experimental: as §1, §2, §3, §4, §5, §6

M. catarrhalis ATCC25238 = assay: Sensitivity test (agar dilution); type: cell-based, Moraxella catarrhalis; settings: Moraxella catarrhalis, M. catarrhalis ATCC25238
Experimental: as §1, §2, §3, §4, §5, §6

[1] = GN346, drug alone, read-out: MIC alone
[2] = IID1275, drug alone, read-out: MIC alone
[3] = ML1410RP4, read-out: MIC alone, drug alone
[4] = ATCC9341, drug alone, read-out: MIC alone
[5] = GN2425, drug alone, read-out: MIC alone
[6] = ATCC13048, drug alone, read-out: MIC alone
[7] = ATCC10031, drug alone, read-out: MIC alone
[8] = TL2666, drug alone, read-out: MIC alone
[9] = TL2667, drug alone, read-out: MIC alone
[10] = ATCC6633, drug alone, read-out: MIC alone
[11] = ATCC19433, drug alone, read-out: MIC alone
[12] = ATCC8176, drug alone, read-out: MIC alone
[13] = ATCC25238, drug alone, read-out: MIC alone

| SMILES | MIC (C. freundii GN346; [1]) [µg/mL] | MIC (S. maltophilia IID1275; [2]) [µg/mL] | MIC (E. coli ML1410 RP4; [3]) [µg/mL] | MIC (M. luteus ATCC9341; [4]) [µg/mL] | MIC (P. mirabiris GN2425; [5]) [µg/mL] | MIC (E. aerogenes ATCC13048; [6]) [µg/mL] | MIC (K. pneumoniae ATCC10031; [7]) [µg/mL] | MIC (P. aeruginosa TL-2666; [8]) [µg/mL] | MIC (P. aeruginosa TL-2667; [9]) [µg/mL] | MIC (B. subtilis ATCC6633; [10]) [µg/mL] | MIC (E. faecalis ATCC19433; [11]) [µg/mL] | MIC (M. catarrhalis ATCC8176; [12]) [µg/mL] | MIC (M. catarrhalis ATCC25238; [13]) [µg/mL] | also measured |
| --- | --- | --- | --- | --- | --- | --- | --- | --- | --- | --- | --- | --- | --- | --- |
| C[C@@H](O)[C@H]1C(=O)N2C(C(=O)[O-])=C(SC3Cn4cnc[n+]4C3)[C@H](C)[C@H]12 (stereo partly shown) [BIPM, biapenem] | 0.25 | > 32 | 0.25 | 0.125 | 0.25 | 0.125 | 0.031 | 1 | 8 | 0.031 | 4 | 0.031 | 0.016 | MIC (C. freundii GN346; GN346, Concomitant (BIPM:SM = 1:1), read-out: MIC concomitant): 0.125 µg/mL; MIC (S. maltophilia IID1275; IID1275, Concomitant (BIPM:SM = 1:1), read-out: MIC concomitant): > 32 µg/mL; MIC (E. coli ML1410 RP4; ML1410RP4, read-out: MIC concomitant, Concomitant (BIPM:SM = 1:1)): 0.125 µg/mL; MIC (M. luteus ATCC9341; ATCC9341, Concomitant (BIPM:SM = 1:1), read-out: MIC concomitant): 0.004 µg/mL; MIC (P. mirabiris GN2425; GN2425, Concomitant (BIPM:SM = 1:1), read-out: MIC concomitant): 0.125 µg/mL; MIC (E. aerogenes ATCC13048; ATCC13048, Concomitant (BIPM:SM = 1:1), read-out: MIC concomitant): 0.063 µg/mL; MIC (K. pneumoniae ATCC10031; ATCC10031, Concomitant (BIPM:SM = 1:1), read-out: MIC concomitant): 0.016 µg/mL; MIC (P. aeruginosa TL-2666; TL2666, Concomitant (BIPM:SM = 1:1), read-out: MIC concomitant): 1 µg/mL; MIC (P. aeruginosa TL-2667; TL2667, Concomitant (BIPM:SM = 1:1), read-out: MIC concomitant): 4 µg/mL; MIC (B. subtilis ATCC6633; ATCC6633, Concomitant (BIPM:SM = 1:1), read-out: MIC concomitant): ≤ 0.002 µg/mL; MIC (E. faecalis ATCC19433; ATCC19433, Concomitant (BIPM:SM = 1:1), read-out: MIC concomitant): 1 µg/mL; MIC (M. catarrhalis ATCC8176; ATCC8176, Concomitant (BIPM:SM = 1:1), read-out: MIC concomitant): ≤ 0.002 µg/mL; MIC (M. catarrhalis ATCC25238; ATCC25238, Concomitant (BIPM:SM = 1:1), read-out: MIC concomitant): ≤ 0.002 µg/mL |
| C[C@@H](O)[C@H]1C(=O)N2C(C(=O)O)=C(S[C@@H]3CN[C@H](CNS(N)(=O)=O)C3)[C@H](C)[C@H]12 [DRPM, doripenem] | 0.063 | > 32 | 0.031 | 0.031 | 0.063 | 0.031 | 0.016 | 1 | 2 | 0.008 | 4 | 0.008 | 0.004 | MIC (C. freundii GN346; GN346, Concomitant (DRPM:SM = 1:1), read-out: MIC concomitant): 0.063 µg/mL; MIC (S. maltophilia IID1275; IID1275, Concomitant (DRPM:SM = 1:1), read-out: MIC concomitant): > 32 µg/mL; MIC (E. coli ML1410 RP4; ML1410RP4, read-out: MIC concomitant, Concomitant (DRPM:SM = 1:1)): 0.031 µg/mL; MIC (M. luteus ATCC9341; ATCC9341, Concomitant (DRPM:SM = 1:1), read-out: MIC concomitant): ≤ 0.002 µg/mL; MIC (P. mirabiris GN2425; GN2425, Concomitant (DRPM:SM = 1:1), read-out: MIC concomitant): 0.063 µg/mL; MIC (E. aerogenes ATCC13048; ATCC13048, Concomitant (DRPM:SM = 1:1), read-out: MIC concomitant): 0.031 µg/mL; MIC (K. pneumoniae ATCC10031; ATCC10031, Concomitant (DRPM:SM = 1:1), read-out: MIC concomitant): 0.008 µg/mL; MIC (P. aeruginosa TL-2666; TL2666, Concomitant (DRPM:SM = 1:1), read-out: MIC concomitant): 1 µg/mL; MIC (P. aeruginosa TL-2667; TL2667, Concomitant (DRPM:SM = 1:1), read-out: MIC concomitant): 2 µg/mL; MIC (B. subtilis ATCC6633; ATCC6633, Concomitant (DRPM:SM = 1:1), read-out: MIC concomitant): ≤ 0.002 µg/mL; MIC (E. faecalis ATCC19433; ATCC19433, Concomitant (DRPM:SM = 1:1), read-out: MIC concomitant): 1 µg/mL; MIC (M. catarrhalis ATCC8176; ATCC8176, Concomitant (DRPM:SM = 1:1), read-out: MIC concomitant): ≤ 0.002 µg/mL; MIC (M. catarrhalis ATCC25238; ATCC25238, Concomitant (DRPM:SM = 1:1), read-out: MIC concomitant): ≤ 0.002 µg/mL |
